Data reported in patent US9073830B2 (Hyundai Pharm Co., Ltd., priority 2011, dated 2015).

What was measured:
[1] = biological target: T1, human 11β-HSD1 (Homo sapiens, UniProt P28845); experiment: Enzyme activity analysis on human 11β-HSD1 (HTRF cortisol, liver microsomes); format: biochemical; conditions: first value of cell
T1 construct: 100 ug/ml human/mouse liver microsomes; from tissue; host or cells: human liver microsomes
Method in brief: (§1)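 Cortisol generated by mouse or human liver microsome 11β-HSD1 during 2 h at 37° C., measured by HTRF competition (cryptate anti-cortisol antibody, d2-cortisol, 2 h room temperature) against a cortisol standard curve. IC50 from percent inhibition versus no-compound control.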

[2] = biological target: T2, mouse 11β-HSD1 (Mus musculus, UniProt P50172); experiment: Enzyme activity analysis on mouse 11β-HSD1 (HTRF cortisol, liver microsomes); format: biochemical; conditions: second value of cell
T2 construct: 100 ug/ml human/mouse liver microsomes; from tissue; host or cells: mouse liver microsomes
T2 sequence (P50172 whole entry): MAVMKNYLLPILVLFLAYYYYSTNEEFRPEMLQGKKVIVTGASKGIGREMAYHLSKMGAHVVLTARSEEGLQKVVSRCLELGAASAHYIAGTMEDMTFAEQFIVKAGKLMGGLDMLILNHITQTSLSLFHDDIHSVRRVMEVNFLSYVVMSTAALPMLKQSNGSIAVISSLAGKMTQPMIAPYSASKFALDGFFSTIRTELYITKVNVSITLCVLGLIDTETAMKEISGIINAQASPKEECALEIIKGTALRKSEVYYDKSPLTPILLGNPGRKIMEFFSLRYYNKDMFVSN
Method in brief: as §1

T1 sequence (P28845 whole entry): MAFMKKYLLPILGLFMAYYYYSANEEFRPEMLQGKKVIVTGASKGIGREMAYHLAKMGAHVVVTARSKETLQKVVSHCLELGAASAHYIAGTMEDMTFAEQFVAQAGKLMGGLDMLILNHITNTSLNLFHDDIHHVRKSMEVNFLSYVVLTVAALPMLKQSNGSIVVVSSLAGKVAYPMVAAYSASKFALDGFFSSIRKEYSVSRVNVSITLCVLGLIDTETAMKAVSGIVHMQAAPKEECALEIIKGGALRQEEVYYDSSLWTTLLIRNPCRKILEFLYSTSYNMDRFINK

IC50 [1] | IC50 [2] | SMILES
0.008 µM | 0.037 µM | NC(=O)C12CC3CC(C1)C(NC(=O)C1(NS(=O)(=O)c4ccccc4Cl)CCCCC1)C(C3)C2 (stereo not drawn) [compound 179, N-4-(1-(2-chlorophenylsulfonamido)cyclohexanecarboxyamido)adamantane-1-carboxyamide]
0.023 µM | 0.328 µM | Cc1c(Cl)cccc1S(=O)(=O)NC1(C(=O)NC2C3CC4CC2CC(C(N)=O)(C4)C3)CCCCC1 (stereo not drawn) [compound 180, N-4-(1-(3-chloro-2-methylphenylsulfonamido)cyclohexanecarboxyamido)adamantane-1-carboxyamide]
0.019 µM | 0.132 µM | NC(=O)C12CC3CC(C1)C(NC(=O)C1(NS(=O)(=O)c4ccccc4C(F)(F)F)CCCCC1)C(C3)C2 (stereo not drawn) [compound 181, N-4-(1-(2-trifluoromethylphenylsulfonamido)cyclohexanecarboxyamido)adamantane-1-carboxyamide]
0.018 µM | 0.006 µM | NC(=O)C12CC3CC(C1)C(NC(=O)C1(NS(=O)(=O)c4cccc5cccnc45)CCCCC1)C(C3)C2 (stereo not drawn) [compound 182, N-4-(1-(quinoline-8-sulfonamido)cyclohexanecarboxyamido)adamantane-1-carboxyamide]
0.017 µM | 0.044 µM | NC(=O)C12CC3CC(C1)C(NC(=O)C1(NS(=O)(=O)c4cccc(Cl)c4Cl)CCCCC1)C(C3)C2 (stereo not drawn) [compound 183, N-4-(1-(2,3-dichlorophenylsulfonamido)cyclohexanecarboxyamido)adamantane-1-carboxyamide]
0.005 µM | 0.104 µM | NC(=O)C12CC3CC(C1)C(NC(=O)C1(NS(=O)(=O)c4ccccc4[N+](=O)[O-])CCCCC1)C(C3)C2 (stereo not drawn) [compound 184, N-4-(1-(2-nitrophenylsulfonamido)cyclohexanecarboxyamido)adamantane-1-carboxyamide]
0.028 µM | 0.119 µM | NC(=O)C12CC3CC(C1)C(NC(=O)C1(NS(=O)(=O)c4ccccc4F)CCCCC1)C(C3)C2 (stereo not drawn) [compound 185, N-4-(1-(2-fluorophenylsulfonamido)cyclohexanecarboxyamido)adamantane-1-carboxyamide]
0.012 µM | 0.005 µM | NC(=O)C12CC3CC(C1)C(NC(=O)C1(NS(=O)(=O)c4c(Cl)cccc4Cl)CCCCC1)C(C3)C2 (stereo not drawn) [compound 186, N-4-(1-(2,6-dichlorophenylsulfonamido)cyclohexanecarboxyamido)adamantane-1-carboxyamide]
0.076 µM | > 2.5 µM | Cc1ccc(S(=O)(=O)NC2(C(=O)NC3C4CC5CC3CC(C(N)=O)(C5)C4)CCCCC2)cc1F (stereo not drawn) [compound 187, N-4-(1-(3-fluoro-4-methylphenylsulfonamido)cyclohexanecarboxyamido)adamantane-1-carboxyamide]
0.013 µM | 0.007 µM | CN(C(C)(C)C(=O)NC1C2CC3CC1CC(C(N)=O)(C3)C2)S(=O)(=O)c1cccc2cccnc12 (stereo not drawn) [compound 188, N-4-(2-methyl-2-(N-methylquinoline-8-sulfonamido)propanamido)adamantane-1-carboxyamide]
0.018 µM | > 2.5 µM | CN(C(C)(C)C(=O)NC1C2CC3CC1CC(C(N)=O)(C3)C2)S(=O)(=O)c1ccccc1Br (stereo not drawn) [compound 189, N-4-(2-(2-bromo-N-methylphenylsulfonamido)-2-methylpropanamido)adamantane-1-carboxyamide]
0.002 µM | 0.005 µM | CN(C(C)(C)C(=O)NC1C2CC3CC1CC(C(N)=O)(C3)C2)S(=O)(=O)c1ccccc1Cl (stereo not drawn) [compound 190, N-4-(2-(2-chloro-N-methylphenylsulfonamido)-2-methylpropanamido)adamantane-1-carboxyamide]
0.009 µM | 0.006 µM | Cc1c(Cl)cccc1S(=O)(=O)N(C)C(C)(C)C(=O)NC1C2CC3CC1CC(C(N)=O)(C3)C2 (stereo not drawn) [compound 191, N-4-(2-(2-methyl-3-chloro-N-methylphenylsulfonamido)-2-methylpropanamido)adamantane-1-carboxyamide]
0.008 µM | 0.002 µM | CN(C(C)(C)C(=O)NC1C2CC3CC1CC(C(N)=O)(C3)C2)S(=O)(=O)c1c(Cl)cccc1Cl (stereo not drawn) [compound 192, N-4-(2-(2,6-dichloro-N-methylphenylsulfonamido)-2-methylpropanamido)adamantane-1-carboxyamide]
0.007 µM | 0.012 µM | CN(C(C)(C)C(=O)NC1C2CC3CC1CC(C(N)=O)(C3)C2)S(=O)(=O)c1ccccc1C(F)(F)F (stereo not drawn) [compound 193, N-4-(2-(2-trifluoromethyl-N-methylphenylsulfonamido)-2-methylpropanamido)adamantane-1-carboxyamide]
0.012 µM | 0.006 µM | COc1cccc(F)c1S(=O)(=O)N(C)C(C)(C)C(=O)NC1C2CC3CC1CC(C(N)=O)(C3)C2 (stereo not drawn) [compound 194, N-4-(2-(2-methoxy-6-fluoro-N-methylphenylsulfonamido)-2-methylpropanamido)adamantane-1-carboxyamide]
0.003 µM | 0.005 µM | Cc1ccccc1S(=O)(=O)N(C)C(C)(C)C(=O)NC1C2CC3CC1CC(C(N)=O)(C3)C2 (stereo not drawn) [compound 196]

IC50 [1] | IC50 [2] | SMILES
0.004 µM | 0.008 µM | CN(C(C)(C)C(=O)NC1C2CC3CC1CC(C(N)=O)(C3)C2)S(=O)(=O)c1ccccc1[N+](=O)[O-] (stereo not drawn) [compound 197, N-4-(2-(2-nitro-N-methylphenylsulfonamido)-2-methylpropanamido)adamantane-1-carboxyamide]
0.008 µM | 0.003 µM | CN(C(C)(C)C(=O)NC1C2CC3CC1CC(C(N)=O)(C3)C2)S(=O)(=O)c1cccc(Cl)c1Cl (stereo not drawn) [compound 198]
0.004 µM | 0.016 µM | CN(C1(C(=O)NC2C3CC4CC2CC(C(N)=O)(C4)C3)CCC1)S(=O)(=O)c1ccccc1[N+](=O)[O-] (stereo not drawn) [compound 199, N-4-(1-(N-methyl-2-nitrophenylsulfonamido)cyclobutanecarboxyamido)adamantane-1-carboxyamide]
0.023 µM | 0.143 µM | Cc1c(Cl)cccc1S(=O)(=O)N(C)C(C)(C)C(=O)NC1C2CC3CC(C2)CC1C3 (stereo not drawn) [compound 200, N-(adamantane-2-yl)-2-(3-chloro-2-methyl-N-methylphenylsulfonamido)-2-methylpropanamide]
0.012 µM | 0.088 µM | CN(C(C)(C)C(=O)NC1C2CC3CC(C2)CC1C3)S(=O)(=O)c1ccccc1C(F)(F)F (stereo not drawn) [compound 201, N-(adamantane-2-yl)-2-(2-trifluoromethyl-N-methylphenylsulfonamido)-2-methylpropan amide]
0.011 µM | 0.208 µM | CN(C(C)(C)C(=O)NC1C2CC3CC1CC(O)(C3)C2)S(=O)(=O)c1ccccc1F (stereo not drawn) [compound 202, N-(5-hydroxyadamantane-2-yl)-2-(2-fluoro-N-methylphenylsulfonamido)-2-methylpropanamide]
0.01 µM | 0.039 µM | CN(C(C)(C)C(=O)NC1C2CC3CC1CC(O)(C3)C2)S(=O)(=O)c1cccc(Cl)c1Cl (stereo not drawn) [compound 203, N-(5-hydroxyadamantane-2-yl)-2-(2,3-dichloro-N-methylphenylsulfonamido)-2-methylpropanamide]
0.004 µM | 0.042 µM | Cc1c(Cl)cccc1S(=O)(=O)N(C)C(C)(C)C(=O)NC1C2CC3CC1CC(O)(C3)C2 (stereo not drawn) [compound 204, N-(5-hydroxyadamantane-2-yl)-2-(2-methyl-3-chloro-N-methylphenylsulfonamido)-2-methylpropanamide]
0.005 µM | 0.068 µM | CN(C(C)(C)C(=O)NC1C2CC3CC1CC(O)(C3)C2)S(=O)(=O)c1ccccc1[N+](=O)[O-] (stereo not drawn) [compound 205, N-(5-hydroxyadamantane-2-yl)-2-(2-nitro-N-methylphenylsulfonamido)-2-methylpropan amide]
0.005 µM | 0.041 µM | CN(C(C)(C)C(=O)NC1C2CC3CC1CC(O)(C3)C2)S(=O)(=O)c1ccccc1Br (stereo not drawn) [compound 206, N-(5-hydroxyadamantane-2-yl)-2-(2-bromo-N-methylphenylsulfonamido)-2-methylpropanamide]
0.006 µM | 0.107 µM | Cc1ccccc1S(=O)(=O)N(C)C(C)(C)C(=O)NC1C2CC3CC1CC(O)(C3)C2 (stereo not drawn) [compound 207, N-(5-hydroxyadamantane-2-yl)-2-(2-methyl-N-methylphenylsulfonamido)-2-methylpropanamide]
0.006 µM | 0.092 µM | CN(C(C)(C)C(=O)NC1C2CC3CC1CC(O)(C3)C2)S(=O)(=O)c1ccccc1C(F)(F)F (stereo not drawn) [compound 208, N-(5-hydroxyadamantane-2-yl)-2-(2-trifluoromethyl-N-methylphenylsulfonamido)-2-methylpropanamide]
0.008 µM | 0.182 µM | CCN(C(C)(C)C(=O)NC1C2CC3CC1CC(C(N)=O)(C3)C2)S(=O)(=O)c1ccccc1C (stereo not drawn) [compound 209, N-4-(2-(2-methyl-N-ethylphenylsulfonamido)-2-methylpropanamido)adamantane-1-carboxyamide]
0.006 µM | 1.44 µM | CCN(C(C)(C)C(=O)NC1C2CC3CC1CC(C(N)=O)(C3)C2)S(=O)(=O)c1ccccc1C(F)(F)F (stereo not drawn) [compound 210, N-4-(2-(2-trifluoromethyl-N-ethylphenylsulfonamido)-2-methylpropanamido)adamantane-1-carboxyamide]
0.006 µM | 0.079 µM | CCN(C(C)(C)C(=O)NC1C2CC3CC1CC(C(N)=O)(C3)C2)S(=O)(=O)c1ccccc1F (stereo not drawn) [compound 211, N-4-(2-(2-fluoro-N-ethylphenylsulfonamido)-2-methylpropanamido)adamantane-1-carboxyamide]
0.024 µM | 0.191 µM | CCN(C(C)(C)C(=O)NC1C2CC3CC1CC(C(N)=O)(C3)C2)S(=O)(=O)c1cccc(Cl)c1Cl (stereo not drawn) [compound 212]
